These cell lines were tested with Cc1cc([C@@H](C)Nc2ccccc2C(=O)O)c2nc(N3CCOCC3)cc(=O)n2c1 [AZD6482] + Cc1nc(Nc2ncc(C(=O)Nc3c(C)cccc3Cl)s2)cc(N2CCN(CCO)CC2)n1 [Dasatinib] (partner 0.075 µM) (assay: relative viability (nuclei count vs DMSO), 5 days (fraction); higher = more cells survive). Conditions: first compound 0.08 µM.
Procedure, shortened: (§1)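 One day after seeding in 1536-well plates, lung cancer cell lines were dosed by pin tool. Dosing was either single-drug or a fixed anchor-drug dose plus five library-drug doses (not always all listed) in √10 steps. After 5 days, nuclei were stained in one fix-and-stain step and counted on 4× images, and relative viability is the nuclei count of treated wells over that of vehicle wells, given as the median of duplicate plates.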

| Cell Line | relative viability |
| --- | --- |
| LXF-289 | 0.188 |
| NCI-H23 | 0.746 |
| NCI-H647 | 0.133 |
| CAL-12T | 0.403 |
| NCI-H1651 | 0.335 |
| EPLC-272H | 0.253 |
| NCI-H1355 | 0.479 |
| NCI-H3122 | 0.775 |
| NCI-H1437 | 0.599 |
| NCI-H1755 | 0.299 |
| NCI-H2023 | 0.454 |

Same assay, conditions: first compound 0.253 µM

| Cell Line | relative viability |
| --- | --- |
| COR-L 105 | 0.318 |
| LOU-NH91 | 0.486 |
| ChaGo-K-1 | 0.501 |
| HOP-62 | 0.528 |
| LU99A | 0.522 |
| BEN | 0.269 |
| HARA | 0.302 |
| HCC-78 | 0.207 |
| NCI-H322M | 0.249 |
| LCLC-97TM1 | 0.711 |
| NCI-H2009 | 0.232 |
| A-427 | 0.615 |
| NCI-H441 | 0.592 |
| NCI-H661 | 0.857 |
| NCI-H1734 | 0.406 |
| NCI-H460 | 0.404 |
| NCI-H2347 | 0.244 |

| Cell Line | relative viability |
| --- | --- |
| SK-LU-1 | 0.165 |
| 201T | 0.542 |
| NCI-H1915 | 0.289 |
| HCC-827 | 0.2 |
| LXF-289 | 0.15 |
| NCI-H23 | 0.952 |
| NCI-H647 | 0.152 |
| CAL-12T | 0.393 |
| NCI-H1651 | 0.435 |
| EPLC-272H | 0.291 |
| NCI-H2228 | 0.367 |
| NCI-H1355 | 0.496 |
| NCI-H3122 | 0.828 |
| NCI-H1437 | 0.316 |
| NCI-H1755 | 0.379 |
| NCI-H2023 | 0.494 |

Same assay, conditions: first compound 0.8 µM

| Cell Line | relative viability |
| --- | --- |
| COR-L 105 | 0.325 |
| LOU-NH91 | 0.577 |
| ChaGo-K-1 | 0.79 |
| NCI-H2405 | 0.232 |
| HOP-62 | 0.572 |
| LU99A | 0.397 |
| BEN | 0.39 |
| HARA | 0.232 |
| HCC-78 | 0.254 |
| NCI-H322M | 0.27 |
| LCLC-97TM1 | 0.869 |
| NCI-H2009 | 0.218 |
| A-427 | 0.715 |
| NCI-H441 | 0.704 |
| NCI-H661 | 0.967 |
| NCI-H1734 | 0.424 |
| NCI-H460 | 0.562 |

| Cell Line | relative viability |
| --- | --- |
| NCI-H2347 | 0.262 |
| SK-LU-1 | 0.18 |
| 201T | 0.627 |
| NCI-H1915 | 0.329 |
| HCC-827 | 0.197 |
| LXF-289 | 0.193 |
| NCI-H23 | 0.511 |
| NCI-H647 | 0.153 |
| CAL-12T | 0.332 |
| NCI-H1651 | 0.401 |
| EPLC-272H | 0.311 |
| NCI-H2228 | 0.461 |
| NCI-H1355 | 0.766 |
| NCI-H3122 | 0.94 |
| NCI-H1437 | 0.44 |
| NCI-H1755 | 0.385 |
| NCI-H2023 | 0.566 |

Same assay, conditions: first compound 2.53 µM

| Cell Line | relative viability |
| --- | --- |
| COR-L 105 | 0.262 |
| LOU-NH91 | 0.406 |
| ChaGo-K-1 | 0.589 |
| NCI-H2405 | 0.206 |
| HOP-62 | 0.299 |
| LU99A | 0.389 |
| BEN | 0.216 |
| HARA | 0.188 |
| HCC-78 | 0.192 |
| NCI-H322M | 0.207 |
| LCLC-97TM1 | 0.611 |
| NCI-H2009 | 0.165 |
| NCI-H661 | 0.502 |
| NCI-H1734 | 0.267 |
| NCI-H460 | 0.241 |
| NCI-H2347 | 0.298 |

| Cell Line | relative viability |
| --- | --- |
| SK-LU-1 | 0.152 |
| 201T | 0.416 |
| NCI-H1915 | 0.286 |
| HCC-827 | 0.161 |
| LXF-289 | 0.106 |
| NCI-H23 | 0.572 |
| NCI-H647 | 0.0999 |
| CAL-12T | 0.21 |
| NCI-H1651 | 0.337 |
| EPLC-272H | 0.172 |
| NCI-H2228 | 0.427 |
| NCI-H1355 | 0.492 |
| NCI-H3122 | 0.361 |
| NCI-H1437 | 0.282 |
| NCI-H1755 | 0.288 |
| NCI-H2023 | 0.3 |

Same assay, conditions: first compound 8 µM

| Cell Line | relative viability |
| --- | --- |
| COR-L 105 | 0.273 |
| LOU-NH91 | 0.376 |
| ChaGo-K-1 | 0.532 |
| NCI-H2405 | 0.191 |
| HOP-62 | 0.349 |
| LU99A | 0.407 |
| BEN | 0.339 |
| HARA | 0.157 |
| HCC-78 | 0.199 |
| NCI-H322M | 0.242 |
| LCLC-97TM1 | 0.486 |
| NCI-H2009 | 0.183 |
| A-427 | 0.754 |
| NCI-H441 | 0.502 |
| NCI-H661 | 0.489 |
| NCI-H1734 | 0.338 |
| NCI-H460 | 0.215 |

| Cell Line | relative viability |
| --- | --- |
| NCI-H2347 | 0.281 |
| SK-LU-1 | 0.165 |
| 201T | 0.395 |
| NCI-H1915 | 0.296 |
| HCC-827 | 0.214 |
| LXF-289 | 0.123 |
| NCI-H23 | 0.368 |
| NCI-H647 | 0.096 |
| CAL-12T | 0.171 |
| NCI-H1651 | 0.307 |
| EPLC-272H | 0.124 |
| NCI-H2228 | 0.455 |
| NCI-H1355 | 0.456 |
| NCI-H3122 | 0.695 |
| NCI-H1437 | 0.244 |
| NCI-H1755 | 0.299 |
| NCI-H2023 | 0.423 |

Each cell line was assayed with Cc1cc([C@@H](C)Nc2ccccc2C(=O)O)c2nc(N3CCOCC3)cc(=O)n2c1 [AZD6482] + CC(C)C[C@H](NC(=O)[C@H](Cc1ccccc1)NC(=O)c1cnccn1)B(O)O [Bortezomib] (partner 0.002 µM) in the same assay as above. Conditions: first compound 0.08 µM.
Procedure, shortened: as §1

| Cell Line | relative viability |
| --- | --- |
| COR-L 105 | 0.719 |
| LOU-NH91 | 0.453 |
| ChaGo-K-1 | 1.09 |
| NCI-H2405 | 0.77 |
| HOP-62 | 0.795 |
| LU99A | 1.07 |
| BEN | 0.592 |
| HARA | 0.977 |
| HCC-78 | 0.42 |
| NCI-H322M | 1.18 |
| LCLC-97TM1 | 0.499 |
| NCI-H2009 | 0.985 |
| A-427 | 0.992 |
| NCI-H441 | 0.617 |
